A word on the inhibition: it is the relative decrease from the control value, in per cent. As a reminder, the pKi is the negative decadic logarithm of the Ki, by convention in mol/L. High values mean a small Ki, low ones a large Ki.

One compound from ChEMBL document CHEMBL4507291 (2021) can be followed below.

Each structure is given as a SMILES string. pKi: −log10 of the molar value.

Experiment [1] is filed under the species Rattus norvegicus. Kind of experiment: Inhibition of Glutamate, NMDA, Phencyclidine at 10 µM in the Eurofins-Panlabs radioligand binding assay (Eurofins_assay_233000). As to conditions: Compound concentration 10.0 uM. The format is protein-complex assay.
Experiment [2] addresses Phosphatidylinositol 4-kinase alpha (Homo sapiens) (UniProt P42356). Kind of experiment: PI4KA (PI4K alpha) Kinase screen. To be noted: Compound concentration 1.0 uM.
In experiment [3] the target is D(1A) dopamine receptor (Homo sapiens) (UniProt P21728). To be noted: Compound concentration 10.0 uM.
Experiment [4] concerns the target Glutamate NMDA receptor (Rattus norvegicus) (UniProt P35439+Q00959+Q00960+Q00961+Q62645+Q8VHN2+Q9R1M7). As to conditions: Compound concentration 10.0 uM.
The subject of experiment [5] is RAF proto-oncogene serine/threonine-protein kinase (Homo sapiens), P04049 [Y340D,Y341D]. Kind of experiment: RAF1 (cRAF) Y340D Y341D Kinase screen. As to conditions: Compound concentration 1.0 uM.
The target in experiment [6] is T1, Rhodopsin kinase GRK7 (Homo sapiens) (UniProt Q8WTQ7).
T1 sequence (whole entry): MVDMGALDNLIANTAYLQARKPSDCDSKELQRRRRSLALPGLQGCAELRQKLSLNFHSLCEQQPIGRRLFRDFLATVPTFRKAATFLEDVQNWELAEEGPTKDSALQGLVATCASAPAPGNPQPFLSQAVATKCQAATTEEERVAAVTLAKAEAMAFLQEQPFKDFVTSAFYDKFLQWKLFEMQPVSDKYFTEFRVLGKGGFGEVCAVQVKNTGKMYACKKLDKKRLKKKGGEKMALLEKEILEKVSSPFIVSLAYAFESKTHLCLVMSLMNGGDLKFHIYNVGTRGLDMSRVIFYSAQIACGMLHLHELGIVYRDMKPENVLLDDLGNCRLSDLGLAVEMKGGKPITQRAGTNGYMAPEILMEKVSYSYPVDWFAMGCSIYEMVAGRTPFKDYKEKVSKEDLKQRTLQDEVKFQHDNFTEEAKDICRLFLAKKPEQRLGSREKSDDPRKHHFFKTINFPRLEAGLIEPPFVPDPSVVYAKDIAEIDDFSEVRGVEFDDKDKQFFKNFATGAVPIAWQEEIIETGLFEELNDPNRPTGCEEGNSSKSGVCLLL
Kind of experiment: GRK7 Kinase screen. To be noted: Compound concentration 1.0 uM.

Experiment [7] deals with T2, cGMP-dependent protein kinase 2 (Homo sapiens) (UniProt Q13237).
T2 sequence (whole entry): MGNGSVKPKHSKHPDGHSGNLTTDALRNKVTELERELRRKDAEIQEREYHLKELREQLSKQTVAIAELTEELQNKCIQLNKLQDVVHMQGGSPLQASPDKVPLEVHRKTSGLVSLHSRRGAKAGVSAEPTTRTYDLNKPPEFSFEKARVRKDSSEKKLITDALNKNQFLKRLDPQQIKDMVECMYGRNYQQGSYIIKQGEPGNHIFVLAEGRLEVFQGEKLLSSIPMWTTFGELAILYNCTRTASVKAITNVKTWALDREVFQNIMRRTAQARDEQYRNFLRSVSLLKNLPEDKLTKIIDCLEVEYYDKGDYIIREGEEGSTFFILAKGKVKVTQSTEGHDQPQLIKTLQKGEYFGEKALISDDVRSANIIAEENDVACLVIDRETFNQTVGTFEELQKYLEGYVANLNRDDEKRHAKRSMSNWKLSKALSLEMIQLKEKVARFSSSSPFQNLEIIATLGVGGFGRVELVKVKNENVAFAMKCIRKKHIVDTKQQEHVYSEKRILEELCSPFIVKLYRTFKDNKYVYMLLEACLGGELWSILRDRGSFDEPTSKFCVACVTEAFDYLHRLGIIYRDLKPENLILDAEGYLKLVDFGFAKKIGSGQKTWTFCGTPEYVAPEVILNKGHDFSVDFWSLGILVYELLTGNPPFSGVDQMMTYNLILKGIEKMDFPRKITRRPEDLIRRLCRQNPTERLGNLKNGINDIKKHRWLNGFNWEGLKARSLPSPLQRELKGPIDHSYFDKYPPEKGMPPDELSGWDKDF
Kind of experiment: PRKG2 (PKG2) Kinase screen. To be noted: Compound concentration 1.0 uM.

Experiment [8] addresses T3, cGMP-dependent protein kinase 1 (Homo sapiens) (UniProt Q13976).
T3 sequence (whole entry): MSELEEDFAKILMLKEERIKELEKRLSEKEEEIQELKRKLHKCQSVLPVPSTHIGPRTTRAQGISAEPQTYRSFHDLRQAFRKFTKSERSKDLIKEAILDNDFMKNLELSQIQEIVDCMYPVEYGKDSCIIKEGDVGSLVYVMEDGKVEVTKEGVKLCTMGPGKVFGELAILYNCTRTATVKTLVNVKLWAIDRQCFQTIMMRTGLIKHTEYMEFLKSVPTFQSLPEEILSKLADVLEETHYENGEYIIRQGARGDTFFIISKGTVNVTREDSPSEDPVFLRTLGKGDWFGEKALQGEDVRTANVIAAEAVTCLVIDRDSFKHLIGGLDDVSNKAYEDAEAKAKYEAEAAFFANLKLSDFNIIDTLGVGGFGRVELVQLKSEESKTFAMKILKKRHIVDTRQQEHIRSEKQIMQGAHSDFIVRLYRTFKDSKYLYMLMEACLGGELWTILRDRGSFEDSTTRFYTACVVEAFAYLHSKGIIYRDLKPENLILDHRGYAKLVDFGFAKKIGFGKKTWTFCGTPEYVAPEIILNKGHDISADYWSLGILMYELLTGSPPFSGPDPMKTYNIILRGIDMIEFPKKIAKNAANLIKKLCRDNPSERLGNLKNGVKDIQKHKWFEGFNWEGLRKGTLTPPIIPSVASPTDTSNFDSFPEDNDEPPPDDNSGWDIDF
Kind of experiment: PRKG1 Kinase screen. To be noted: Compound concentration 1.0 uM.

For experiment [9], the target named is 3-phosphoinositide-dependent protein kinase 1 (PDPK1) (Homo sapiens) (UniProt O15530). Kind of experiment: PDK1 Kinase screen. As to conditions: Compound concentration 1.0 uM.
For experiment [10], the target named is 5-hydroxytryptamine receptor 2B (Homo sapiens, UniProt P41595). Kind of experiment: Inhibition of Serotonin (5-Hydroxytryptamine) 5-HT2B at compound concentration of 10.0 uM in the Eurofins-Panlabs radioligand binding assay (Eurofins_assay_271700). Set-up: ligand concentration 1.2 nM, non-specific ligand with concentration 10 uM Serotonin (5-HT), incubation time 60 min, incubation temperature 37 C.

Experiment [11] deals with SRSF protein kinase 3 (Homo sapiens) (UniProt Q9UPE1). Kind of experiment: STK23 (MSSK1) Kinase screen. As to conditions: Compound concentration 1.0 uM.
Sequence of SRSF protein kinase 3 (Homo sapiens) (Q9UPE1 whole entry): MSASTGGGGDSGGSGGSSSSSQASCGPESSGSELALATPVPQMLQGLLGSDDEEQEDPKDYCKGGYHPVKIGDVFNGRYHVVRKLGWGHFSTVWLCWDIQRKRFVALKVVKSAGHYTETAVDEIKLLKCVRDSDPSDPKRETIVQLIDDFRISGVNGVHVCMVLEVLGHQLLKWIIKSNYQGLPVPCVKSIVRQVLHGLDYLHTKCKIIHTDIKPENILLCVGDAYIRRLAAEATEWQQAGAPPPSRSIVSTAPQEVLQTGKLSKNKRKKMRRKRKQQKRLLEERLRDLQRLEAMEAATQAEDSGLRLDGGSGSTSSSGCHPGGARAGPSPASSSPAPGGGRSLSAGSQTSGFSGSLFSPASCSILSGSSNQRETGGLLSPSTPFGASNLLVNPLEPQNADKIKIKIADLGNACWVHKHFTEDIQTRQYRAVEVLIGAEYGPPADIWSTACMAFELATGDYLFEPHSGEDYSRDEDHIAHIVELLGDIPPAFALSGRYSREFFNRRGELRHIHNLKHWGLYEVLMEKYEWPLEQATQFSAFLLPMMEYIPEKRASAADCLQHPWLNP

Sequence of Phosphatidylinositol 4-kinase alpha (Homo sapiens) (P42356 whole entry, looked up): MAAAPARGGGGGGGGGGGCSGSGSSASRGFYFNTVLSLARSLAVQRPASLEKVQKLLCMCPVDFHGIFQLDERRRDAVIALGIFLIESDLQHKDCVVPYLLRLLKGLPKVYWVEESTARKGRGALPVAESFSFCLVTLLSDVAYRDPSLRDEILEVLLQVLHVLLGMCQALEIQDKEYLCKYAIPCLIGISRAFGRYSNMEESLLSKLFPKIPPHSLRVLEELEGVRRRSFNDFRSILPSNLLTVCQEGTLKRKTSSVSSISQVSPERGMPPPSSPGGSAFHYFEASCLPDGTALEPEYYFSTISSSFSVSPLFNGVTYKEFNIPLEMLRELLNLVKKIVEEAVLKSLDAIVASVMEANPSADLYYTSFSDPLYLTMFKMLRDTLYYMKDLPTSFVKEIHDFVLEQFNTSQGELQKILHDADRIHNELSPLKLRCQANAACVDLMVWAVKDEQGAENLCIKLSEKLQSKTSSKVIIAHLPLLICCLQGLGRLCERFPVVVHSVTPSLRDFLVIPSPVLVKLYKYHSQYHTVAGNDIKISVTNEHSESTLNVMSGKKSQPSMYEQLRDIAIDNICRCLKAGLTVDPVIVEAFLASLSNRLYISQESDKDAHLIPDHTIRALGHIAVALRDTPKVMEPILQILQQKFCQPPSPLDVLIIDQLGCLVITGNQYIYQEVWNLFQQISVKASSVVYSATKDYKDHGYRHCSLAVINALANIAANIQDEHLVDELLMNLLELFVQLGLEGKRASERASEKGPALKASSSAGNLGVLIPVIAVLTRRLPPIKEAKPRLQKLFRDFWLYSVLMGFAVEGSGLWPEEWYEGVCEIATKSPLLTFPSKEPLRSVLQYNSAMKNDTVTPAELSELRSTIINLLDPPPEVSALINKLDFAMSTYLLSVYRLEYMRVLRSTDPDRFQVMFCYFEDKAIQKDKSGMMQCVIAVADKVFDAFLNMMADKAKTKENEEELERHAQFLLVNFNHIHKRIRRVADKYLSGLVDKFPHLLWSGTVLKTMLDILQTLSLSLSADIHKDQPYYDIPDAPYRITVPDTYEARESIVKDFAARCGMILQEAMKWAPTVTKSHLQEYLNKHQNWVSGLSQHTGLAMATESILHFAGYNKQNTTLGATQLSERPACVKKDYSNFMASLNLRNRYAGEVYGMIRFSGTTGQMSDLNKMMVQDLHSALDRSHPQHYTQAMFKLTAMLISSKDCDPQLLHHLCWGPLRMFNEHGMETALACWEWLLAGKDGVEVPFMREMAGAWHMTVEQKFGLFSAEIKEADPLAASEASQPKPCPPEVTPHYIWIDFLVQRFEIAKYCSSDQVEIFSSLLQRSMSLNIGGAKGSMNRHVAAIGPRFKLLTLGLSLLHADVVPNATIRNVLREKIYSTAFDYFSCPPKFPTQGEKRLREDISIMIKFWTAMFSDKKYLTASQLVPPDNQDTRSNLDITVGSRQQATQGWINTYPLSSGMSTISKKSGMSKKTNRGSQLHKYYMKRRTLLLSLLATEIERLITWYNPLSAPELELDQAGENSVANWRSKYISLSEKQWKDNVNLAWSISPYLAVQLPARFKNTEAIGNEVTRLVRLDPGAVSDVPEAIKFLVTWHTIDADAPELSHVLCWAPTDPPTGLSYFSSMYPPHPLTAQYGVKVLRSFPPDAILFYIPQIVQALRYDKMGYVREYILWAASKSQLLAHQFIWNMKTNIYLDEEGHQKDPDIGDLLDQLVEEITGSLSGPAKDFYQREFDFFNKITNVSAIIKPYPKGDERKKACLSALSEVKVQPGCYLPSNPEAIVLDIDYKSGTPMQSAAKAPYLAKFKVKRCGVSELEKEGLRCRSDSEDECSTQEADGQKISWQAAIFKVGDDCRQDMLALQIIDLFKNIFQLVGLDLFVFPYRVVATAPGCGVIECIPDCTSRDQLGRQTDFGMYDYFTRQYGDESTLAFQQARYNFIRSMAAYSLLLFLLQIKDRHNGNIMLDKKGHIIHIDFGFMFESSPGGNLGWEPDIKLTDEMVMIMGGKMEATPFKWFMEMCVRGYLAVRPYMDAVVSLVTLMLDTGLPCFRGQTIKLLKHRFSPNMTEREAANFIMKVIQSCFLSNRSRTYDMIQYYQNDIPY
Sequence of RAF proto-oncogene serine/threonine-protein kinase (Homo sapiens), P04049 [Y340D,Y341D] (P04049 whole entry Y340D/Y341D): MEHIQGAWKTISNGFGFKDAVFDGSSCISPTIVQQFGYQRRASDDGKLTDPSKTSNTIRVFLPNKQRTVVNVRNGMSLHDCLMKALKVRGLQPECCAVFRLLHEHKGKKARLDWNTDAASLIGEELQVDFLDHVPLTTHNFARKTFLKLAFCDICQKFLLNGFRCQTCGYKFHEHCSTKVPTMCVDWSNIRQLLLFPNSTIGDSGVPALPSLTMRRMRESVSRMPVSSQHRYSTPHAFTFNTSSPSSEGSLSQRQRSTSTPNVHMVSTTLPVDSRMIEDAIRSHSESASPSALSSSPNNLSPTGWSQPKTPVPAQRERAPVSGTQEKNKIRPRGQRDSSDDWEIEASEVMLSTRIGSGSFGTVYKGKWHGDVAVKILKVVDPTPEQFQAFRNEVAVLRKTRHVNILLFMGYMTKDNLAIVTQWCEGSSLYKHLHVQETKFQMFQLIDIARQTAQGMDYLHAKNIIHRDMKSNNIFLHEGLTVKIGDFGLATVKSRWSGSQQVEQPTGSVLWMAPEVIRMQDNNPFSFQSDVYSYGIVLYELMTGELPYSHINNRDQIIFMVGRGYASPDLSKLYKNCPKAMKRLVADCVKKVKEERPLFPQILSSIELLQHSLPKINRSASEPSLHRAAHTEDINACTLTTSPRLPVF
Sequence of 5-hydroxytryptamine receptor 2B (P41595 whole entry): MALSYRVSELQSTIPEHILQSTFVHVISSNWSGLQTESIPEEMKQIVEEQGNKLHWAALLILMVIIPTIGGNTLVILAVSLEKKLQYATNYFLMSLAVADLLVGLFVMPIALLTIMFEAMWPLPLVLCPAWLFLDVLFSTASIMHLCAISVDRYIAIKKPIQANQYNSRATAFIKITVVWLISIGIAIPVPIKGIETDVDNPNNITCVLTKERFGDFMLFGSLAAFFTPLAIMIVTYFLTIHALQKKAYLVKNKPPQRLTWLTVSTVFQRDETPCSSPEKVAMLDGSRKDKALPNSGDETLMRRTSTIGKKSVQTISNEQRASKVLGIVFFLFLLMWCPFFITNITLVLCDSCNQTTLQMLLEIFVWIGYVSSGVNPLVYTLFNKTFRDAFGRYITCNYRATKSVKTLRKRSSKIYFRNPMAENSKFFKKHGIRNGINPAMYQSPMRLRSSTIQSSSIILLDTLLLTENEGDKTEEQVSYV
Sequence of 3-phosphoinositide-dependent protein kinase 1 (PDPK1) (Homo sapiens) (O15530 whole entry, looked up): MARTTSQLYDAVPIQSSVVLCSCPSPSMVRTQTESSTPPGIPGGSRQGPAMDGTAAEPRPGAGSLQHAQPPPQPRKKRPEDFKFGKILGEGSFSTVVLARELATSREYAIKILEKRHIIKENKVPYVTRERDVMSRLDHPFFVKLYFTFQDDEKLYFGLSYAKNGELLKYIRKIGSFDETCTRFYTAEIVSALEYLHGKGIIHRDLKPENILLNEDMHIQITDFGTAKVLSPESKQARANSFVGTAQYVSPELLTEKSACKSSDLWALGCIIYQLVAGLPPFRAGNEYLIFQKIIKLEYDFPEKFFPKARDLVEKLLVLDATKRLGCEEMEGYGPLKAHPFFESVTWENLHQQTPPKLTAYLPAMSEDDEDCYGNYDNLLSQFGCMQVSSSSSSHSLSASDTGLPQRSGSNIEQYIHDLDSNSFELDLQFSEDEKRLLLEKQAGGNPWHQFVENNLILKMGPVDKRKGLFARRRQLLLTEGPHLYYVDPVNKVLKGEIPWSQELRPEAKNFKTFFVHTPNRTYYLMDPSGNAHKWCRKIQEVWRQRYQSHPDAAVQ
Sequence of D(1A) dopamine receptor (Homo sapiens) (P21728 whole entry): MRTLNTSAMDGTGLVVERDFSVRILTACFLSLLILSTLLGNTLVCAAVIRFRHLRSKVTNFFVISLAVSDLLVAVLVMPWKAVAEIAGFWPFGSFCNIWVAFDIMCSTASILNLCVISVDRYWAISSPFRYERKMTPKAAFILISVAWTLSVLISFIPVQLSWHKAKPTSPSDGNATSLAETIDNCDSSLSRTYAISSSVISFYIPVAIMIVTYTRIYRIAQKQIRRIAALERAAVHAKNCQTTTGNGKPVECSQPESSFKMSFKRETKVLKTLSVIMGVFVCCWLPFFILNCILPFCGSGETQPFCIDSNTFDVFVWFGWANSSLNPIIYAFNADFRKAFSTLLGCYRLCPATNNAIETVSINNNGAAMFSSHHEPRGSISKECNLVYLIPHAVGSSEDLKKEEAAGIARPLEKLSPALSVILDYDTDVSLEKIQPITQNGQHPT

As for `C[C@@H]1CN(c2cc(-c3n[nH]c4ccc(OC5(C)CC5)cc34)ncn2)C[C@H](C)O1` [MLi-2], the inhibition was -1% in experiment [1]; 5.35% in experiment [2]; 12% in [3]; 5% in experiment [4]; 2.98% in experiment [5]; 4.4% in [6]. Also, the inhibition was 1.23% in experiment [7], 0.194% in [8], 13.6% in experiment [9] and 11.9% in [11]. In addition, the pKi in experiment [10] was 6.12.
